Measured values as given in the Kinase Knowledgebase extract (Sharma et al. 2016).

The compounds below were run against PIK3CD (Human) (UniProt O00329) (assay: Assessment of PIK3CD Kinase Activity (Scintillation Proximity Assay)).
Sequence of PIK3CD (Human) (O00329 whole entry, looked up): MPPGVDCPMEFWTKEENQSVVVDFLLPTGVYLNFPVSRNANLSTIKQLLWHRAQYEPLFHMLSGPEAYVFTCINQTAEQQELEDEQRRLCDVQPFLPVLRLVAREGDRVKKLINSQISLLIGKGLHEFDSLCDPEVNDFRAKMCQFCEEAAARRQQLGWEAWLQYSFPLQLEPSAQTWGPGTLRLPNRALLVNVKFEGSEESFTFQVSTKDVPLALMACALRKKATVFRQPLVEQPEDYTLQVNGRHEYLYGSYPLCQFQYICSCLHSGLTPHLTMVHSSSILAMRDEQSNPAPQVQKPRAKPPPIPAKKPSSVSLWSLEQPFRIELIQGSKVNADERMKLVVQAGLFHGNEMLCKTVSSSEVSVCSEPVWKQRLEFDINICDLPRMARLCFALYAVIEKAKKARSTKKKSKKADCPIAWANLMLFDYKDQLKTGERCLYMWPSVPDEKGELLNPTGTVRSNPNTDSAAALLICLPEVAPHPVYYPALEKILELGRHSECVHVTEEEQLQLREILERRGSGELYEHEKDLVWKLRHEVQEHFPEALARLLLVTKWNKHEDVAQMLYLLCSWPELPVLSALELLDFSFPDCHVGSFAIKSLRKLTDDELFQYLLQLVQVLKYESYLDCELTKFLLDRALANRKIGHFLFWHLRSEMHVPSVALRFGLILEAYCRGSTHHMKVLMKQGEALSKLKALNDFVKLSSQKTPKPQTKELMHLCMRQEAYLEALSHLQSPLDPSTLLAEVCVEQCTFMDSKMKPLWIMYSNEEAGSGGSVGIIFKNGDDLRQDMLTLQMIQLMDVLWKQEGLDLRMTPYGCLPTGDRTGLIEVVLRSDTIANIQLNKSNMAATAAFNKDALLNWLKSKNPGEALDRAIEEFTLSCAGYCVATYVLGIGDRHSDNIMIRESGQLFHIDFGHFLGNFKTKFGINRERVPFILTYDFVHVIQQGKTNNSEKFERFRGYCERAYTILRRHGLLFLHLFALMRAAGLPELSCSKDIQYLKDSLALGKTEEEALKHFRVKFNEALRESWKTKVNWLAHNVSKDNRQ

`CCOc1c(C(C)n2nc(C(F)F)c3c(N)ncnc32)cc(Cl)c(C)c1-c1ccc(C(=O)N(C)C)nc1` (stereo not given) was tested. Which IC50 did it give?
The IC50 was ≤ 10 nM.

For `COCCN1CC(c2c(C)c(Cl)cc(C(C)n3nc(C)c4c(N)ncnc43)c2OC)C1` (stereo not given), which IC50 is on record?
Its IC50 is ≤ 10 nM.

`CNC(=O)c1cc(-c2c(C)c(Cl)cc(C(C)n3nc(C)c4c(N)ncnc43)c2OC)ccn1` (stereo not given) was tested. Which IC50 did it give?
Its IC50 is ≤ 10 nM.

With `CCOc1c(C(C)n2nc(C)c3c(N)ncnc32)cc(C#N)c(C)c1-c1cnn(C)c1` (stereo not given) as the compound, how does the IC50 read?
Its IC50 is ≤ 10 nM.

Which IC50 does the source give for `COc1c(C(C)n2nc(C)c3c(N)ncnc32)cc(Cl)c(C)c1-c1cncc(C(=O)N2CCC(O)CC2)c1` (stereo not given) here?
The IC50 was ≤ 10 nM.

`COc1c(C(C)n2ccc(=O)c3c(N)ncnc32)cc(Cl)c(C)c1-c1cccc(S(=O)(=O)N(C)C)c1` (stereo not given) was tested. Which IC50 did it give?
The IC50 was ≤ 10 nM.

For `CNC(=O)c1ccc(-c2c(C)c(Cl)cc(C(C)n3nc(C)c4c(N)ncnc43)c2OC)cc1F` (stereo not given), which IC50 is on record?
The IC50 was ≤ 10 nM.

How did the IC50 turn out when `COc1c(C(C)n2nc(C)c3c(N)ncnc32)cc(Cl)c(C#N)c1C1CN(C2CCOC2)C1` (stereo not given) was run?
Its IC50 is ≤ 10 nM.

How did the IC50 turn out when `COc1c(C(C)n2ncc3c(N)ncnc32)cc(Cl)c(C)c1-c1ccnc(C(=O)NCCO)c1` (stereo not given) was run?
Its IC50 is 50 to 200 nM.

With `CCNC(=O)c1c(C)c(Cl)cc(C(C)n2nc(-c3ccc4oc(N)nc4c3)c3c(N)ncnc32)c1OCC` (stereo not given) as the compound, how does the IC50 read?
The IC50 was ≤ 10 nM.

`CCOc1c(C(C)n2nc(C)c3c(N)ncnc32)cc(Cl)c(C#N)c1C1CN(CCO)C1` (stereo not given) was tested. Which IC50 did it give?
The IC50 was ≤ 10 nM.

With `CCNC(=O)c1c(C)c(Cl)cc(C(C)n2nc(-c3ccc4nc(N)sc4c3)c3c(N)ncnc32)c1OCC` (stereo not given) as the compound, how does the IC50 read?
The IC50 was ≤ 10 nM.

For `COc1c(C(C)n2nc(C)c3c(N)ncnc32)cc(Cl)c(C)c1C1CN(C(=O)C2CC2)C1` (stereo not given), which IC50 is on record?
The IC50 was ≤ 10 nM.

For `COc1c(C(C)n2nc(C)c3c(N)ncnc32)cc(Cl)c(C#N)c1C1CN(CC(C)(C)O)C1` (stereo not given), which IC50 is on record?
The IC50 was ≤ 10 nM.

Which IC50 does the source give for `CCOc1c(C(C)n2nc(C#C[C@@H](C)O)c3c(N)ncnc32)cc(Cl)c(C)c1-c1ccc(C(=O)N(C)C)nc1` (stereo not given in full) here?
The IC50 was ≤ 10 nM.

`COc1c(C(C)n2nc(C)c3c(N)ncnc32)cc(Cl)c(Cl)c1C1CN(CCO)C1` (stereo not given) was tested. Which IC50 did it give?
The IC50 was ≤ 10 nM.

`COc1c(C(C)n2nc(C)c3c(N)ncnc32)cc(Cl)c(C)c1C1CN(C(=O)[C@H](C)O)C1` (stereo not given in full) was tested. Which IC50 did it give?
Its IC50 is ≤ 10 nM.

Which IC50 does the source give for `COc1c(C(C)n2nc(C)c3c(N)ncnc32)cc(Cl)c(C#N)c1C1CN(CC2CCOCC2)C1` (stereo not given) here?
The IC50 was ≤ 10 nM.

With `CCOc1c(C(C)n2nc(C)c3c(N)ncnc32)cc(Cl)c(C#N)c1C1CN(C(=O)OC(C)C)C1` (stereo not given) as the compound, how does the IC50 read?
The IC50 was ≤ 10 nM.

With `COc1c(C(C)n2nc(C(F)F)c3c(N)ncnc32)cc(Cl)c(F)c1C1CN(C[C@H](C)O)C1` (stereo not given in full) as the compound, how does the IC50 read?
Its IC50 is ≤ 10 nM.

For `COc1c(C(C)n2nc(C)c3c(N)ncnc32)cc(Cl)c(C)c1C1CN(CC(F)(F)F)C1` (stereo not given), which IC50 is on record?
Its IC50 is ≤ 10 nM.

How did the IC50 turn out when `COc1c(C(C)n2nc(C)c3c(N)ncnc32)cc(Cl)c(C)c1C1CN(C2COC2)C1` (stereo not given) was run?
Its IC50 is ≤ 10 nM.

Which IC50 does the source give for `CNC(=O)[C@H](C)N1CC(c2c(C)c(C#N)cc(C(C)n3nc(C(F)F)c4c(N)ncnc43)c2OC)C1` (stereo not given in full) here?
Its IC50 is ≤ 10 nM.

For `CCOc1c(C(C)n2nc(C)c3c(N)ncnc32)cc(Cl)c(C#N)c1C1CN(C(C)CO)C1` (stereo not given), which IC50 is on record?
The IC50 was ≤ 10 nM.

Which IC50 does the source give for `COc1c(C(C)n2nc(C)c3c(N)nccc32)cc(Cl)c(C)c1-c1ccc(C(=O)N(C)C)nc1` (stereo not given) here?
The IC50 was 50 to 200 nM.

For `CCOc1c(C(C)n2nc(C)c3c(N)ncnc32)cc(Cl)c(C#N)c1C1CN(C(C)(C)CO)C1` (stereo not given), which IC50 is on record?
The IC50 was ≤ 10 nM.

Which IC50 does the source give for `CCOc1c(C(C)n2nc(C)c3c(N)ncnc32)cc(Cl)c(C#N)c1-c1ccc(-c2cnn(C)n2)nc1` (stereo not given) here?
Its IC50 is ≤ 10 nM.

With `CCOc1c(C(C)n2nc(C(F)F)c3c(N)ncnc32)cc(Cl)c(F)c1C1CN(C[C@@H](C)O)C1` (stereo not given in full) as the compound, how does the IC50 read?
The IC50 was ≤ 10 nM.

How did the IC50 turn out when `CCOc1c(C(C)n2nc(C)c3c(N)ncnc32)cc(Cl)c(C#N)c1C1CN(CC#N)C1` (stereo not given) was run?
Its IC50 is ≤ 10 nM.

`COc1c(C(C)n2nc(C)c3c(N)ncnc32)cc(Cl)c(F)c1C1CN(CC(C)(C)O)C1` (stereo not given) was tested. Which IC50 did it give?
The IC50 was ≤ 10 nM.

For `COc1c([C@H](C)n2nc(C)c3c(N)ncnc32)cc(Cl)c(C#N)c1C1CN(C[C@@H](C)O)C1`, which IC50 is on record?
The IC50 was ≤ 10 nM.

`CCOc1c(C(C)n2nc(C)c3c(N)ncnc32)cc(Cl)c(C#N)c1C1CN(C(=O)C2CC2)C1` (stereo not given) was tested. Which IC50 did it give?
Its IC50 is ≤ 10 nM.

For `CNC(=O)c1ccc(-c2c(C)c(Cl)cc(C(C)n3nc(C)c4c(N)ncnc43)c2OC)cn1` (stereo not given), which IC50 is on record?
The IC50 was ≤ 10 nM.

How did the IC50 turn out when `CCOc1c(C(C)n2nc(C)c3c(N)ncnc32)cc(Cl)c(C#N)c1C1CNC(=O)C1` (stereo not given) was run?
Its IC50 is ≤ 10 nM.

Which IC50 does the source give for `CCOc1c(C(C)n2nc(C)c3c(N)ncnc32)cc(Cl)c(F)c1C1CN(CC(C)(C)O)C1` (stereo not given) here?
The IC50 was ≤ 10 nM.
